Experiment [1] concerns AQP1. As to conditions: Xenopus oocytes; cited from earlier work.
In experiment [2] the target is T1, AQP1 (Homo sapiens, UniProt P29972).
T1 sequence (P29972 1-269): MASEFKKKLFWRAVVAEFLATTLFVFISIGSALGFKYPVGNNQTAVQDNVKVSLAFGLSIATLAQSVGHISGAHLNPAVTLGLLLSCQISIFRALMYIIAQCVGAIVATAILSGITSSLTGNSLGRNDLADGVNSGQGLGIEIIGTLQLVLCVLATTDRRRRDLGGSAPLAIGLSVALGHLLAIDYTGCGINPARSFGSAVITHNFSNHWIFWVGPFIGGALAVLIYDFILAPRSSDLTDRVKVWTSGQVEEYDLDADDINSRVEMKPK
In kind it is biochemical.

Read-outs that look alike come from different tables or passages of the source.

In the case of `CC(=O)Nc1nnc(S(N)(=O)=O)s1` [acetazolamide], the “inhibition of AQP1 water transport” value in the experiment on AQP1 [1] is “no inhibition”.

Take `[Cl][Hg][Cl]` [HgCl2, mercuric chloride]: the “reduction in water transport (inhibitory action)” value on AQP1 [2] (hypotonic shock, compounds at final 75 μM, HgCl2 50 μM) is on record as “highly sensitive”.

As for `CC[N+](CC)(CC)CC` [TEA, tetraethylammonium], on AQP1 [2], the “reduction in water transport (inhibitory action)” value is on record as “ineffective”. Further, in the experiment with AQP1 [1], the “inhibition of AQP1 water transport” value is reported as “no inhibition”.
